# Tests used:
# human orexin-2 receptor = human orexin-2 receptor (Homo sapiens (Human), UniProt O43614); assay: Human orexin 2 receptor radioligand binding ([3H]-EMPA competition); conditions: HEK293 cells stably expressing human orexin-2 receptor; [3H]-EMPA 5 nM final; read-out: OR-2 Ki
# In short: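 Competition binding on HEK293 cells stably expressing human orexin-2 receptor, using 5 nM final [3H]-EMPA in PBS, compounds 0.1 nM to 10 μM (DMSO ≤0.1%). 60 min at room temperature, then filtration and scintillation counting; nonspecific binding defined with 10 μM of a reference antagonist.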
# human orexin 1 receptor = human orexin 1 receptor (Homo sapiens (Human), UniProt O43613); assay: Human orexin 1 receptor radioligand binding ([3H]-SB674042 competition); conditions: CHO cells stably expressing human orexin 1 receptor; [3H]-SB674042 4 nM final; read-out: OR-1 Ki
# Sequence of human orexin 1 receptor (O43613 whole entry): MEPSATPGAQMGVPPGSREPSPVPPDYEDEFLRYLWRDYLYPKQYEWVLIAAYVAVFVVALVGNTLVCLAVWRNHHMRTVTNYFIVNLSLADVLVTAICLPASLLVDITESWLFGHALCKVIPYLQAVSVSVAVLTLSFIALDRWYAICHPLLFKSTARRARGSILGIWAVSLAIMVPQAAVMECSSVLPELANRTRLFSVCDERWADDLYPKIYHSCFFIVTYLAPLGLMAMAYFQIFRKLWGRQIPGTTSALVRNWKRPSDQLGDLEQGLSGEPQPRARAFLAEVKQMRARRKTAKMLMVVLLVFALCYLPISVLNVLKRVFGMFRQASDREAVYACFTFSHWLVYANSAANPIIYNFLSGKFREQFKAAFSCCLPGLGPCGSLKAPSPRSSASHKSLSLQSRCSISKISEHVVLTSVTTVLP
# In short: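 CHO cells stably expressing human OX1R incubated 60 min at room temperature with [3H]-SB674042 and compounds (7 concentrations, 0.1 nM–10 μM; DMSO ≤0.1%) in PBS. Nonspecific binding defined with 10 μM of a reference urea antagonist; bound radioactivity measured by filtration and scintillation counting.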
# Sequence of human orexin-2 receptor (O43614 whole entry): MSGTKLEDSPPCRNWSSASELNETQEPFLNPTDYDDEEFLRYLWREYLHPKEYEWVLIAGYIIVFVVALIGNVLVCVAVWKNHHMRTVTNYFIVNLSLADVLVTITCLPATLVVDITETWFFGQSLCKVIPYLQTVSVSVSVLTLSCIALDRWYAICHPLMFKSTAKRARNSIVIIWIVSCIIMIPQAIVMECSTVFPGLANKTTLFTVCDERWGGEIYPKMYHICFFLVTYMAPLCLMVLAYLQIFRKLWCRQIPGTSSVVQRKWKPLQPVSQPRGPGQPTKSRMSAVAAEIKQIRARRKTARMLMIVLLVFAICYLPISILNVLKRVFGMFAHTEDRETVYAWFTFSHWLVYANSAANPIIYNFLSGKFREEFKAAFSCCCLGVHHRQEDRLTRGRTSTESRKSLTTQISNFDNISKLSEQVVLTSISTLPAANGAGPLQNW
Structure (SMILES),Ki (human orexin-2 receptor) [nM],Ki (human orexin 1 receptor) [nM]
"Cc1cc(C)nc(N2C[C@@H]3CCN(C(=O)c4cccc(F)c4-c4ncccn4)C[C@@H]32)n1 [Example 185, (1R,6S)-8-(4,6-Dimethylpyrimidin-2-yl)-3-[(3-fluoro-2-pyrimidin-2-ylphenyl)carbonyl]-3,8-diazabicyclo[4.2.0]octane]",56,600
"CN(C)c1ccnc(N2C[C@@H]3CCN(C(=O)c4cccc(F)c4-n4nccn4)C[C@@H]32)c1 [Example 144, 2-[(1R,6S)-3-{[3-Fluoro-2-(2H-1,2,3-triazol-2-yl)phenyl]carbonyl}-3,8-diazabicyclo[4.2.0]oct-8-yl]-N,N-dimethylpyridin-4-amine]",2810,10000
"O=C(c1c(F)cccc1-n1nccn1)N1CC[C@H]2CN(c3nccc(C(F)(F)F)n3)[C@H]2C1 [Example 95, (1R,6S)-3-{[2-Fluoro-6-(2H-1,2,3-triazol-2-yl)phenyl]carbonyl}-8-[4-(trifluoromethyl)pyrimidin-2-yl]-3,8-diazabicyclo[4.2.0]octane]",23,625
"Cc1cc(N2C[C@@H]3CCN(C(=O)c4c(F)cccc4-n4nccn4)C[C@@H]32)nc(N(C)C)n1 [Example 44, (1R,6S)-[8-(2-Dimethylamino-6-methyl-pyrimidin-4-yl)-3,8-diaza-bicyclo[4.2.0]oct-3-yl]-(2-fluoro-6-[1,2,3]triazol-2-yl-phenyl)-methanone]",73,480
"O=C(c1ccccc1-c1cccs1)N1CC2CN(c3cnc4ccccc4n3)C2C1 (stereo not shown) [Example 49, 2-{3-[(2-Thiophen-2-ylphenyl)carbonyl]-3,6-diazabicyclo[3.2.0]hept-6-yl}quinoxaline]",77,114
"Cc1cc(C)nc(N2C[C@@H]3CCN(C(=O)c4cc(F)ccc4-c4ccc(N(C)C)nc4)C[C@@H]32)n1 [Example 166, 5-(2-{[(1R,6S)-8-(4,6-Dimethylpyrimidin-2-yl)-3,8-diazabicyclo[4.2.0]oct-3-yl]carbonyl}-4-fluorophenyl)-N,N-dimethylpyridin-2-amine]",72,3840
"O=C(c1cccc(F)c1-c1ncccn1)N1CC[C@H]2CN(c3cc(C(F)(F)F)ccn3)[C@H]2C1 [Example 152, (1R,6S)-3-[(3-Fluoro-2-pyrimidin-2-ylphenyl)carbonyl]-8-[4-(trifluoromethyl)pyridin-2-yl]-3,8-diazabicyclo[4.2.0]octane]",223,1850
"O=C(c1c(F)cccc1-n1nccn1)N1CC[C@H]2CN(c3nc4cc(Cl)ccc4o3)[C@H]2C1 [Example 120, 5-Chloro-2-[(1R,6S)-3-{[2-fluoro-6-(2H-1,2,3-triazol-2-yl)phenyl]carbonyl}-3,8-diazabicyclo[4.2.0]oct-8-yl]-1,3-benzoxazole]",26,43
